From patent publication US5128376A, “Method for percutaneously administering physiologically active agents using an adjuvant a solvent and a diol moderator” (priority 1990, dated 1992)
Counter-ions that a name gives are not always drawn. Like-named read-outs stand apart in the source and are kept apart here. One block for each compound: values may come before it.

Tests used:
[1] = In vitro skin penetration study with rat skin diffusion cell technique (active agent flux, 8 hours); conditions: 25 mg in 1 ml
From the text: Rat full thickness skins were used in the diffusion cell method of Michaels, AlChE Journal, 21 [5], 985-996, 1975. The rat skin was mounted in the diffusion cell in a vertical position between the upstream and the downstream compartments; the exposed area of the skin approximated 4.15 cm^2.
The skin was excised from the shaved abdominal site of male albino rats weighing 150~300 g, and washed with normal saline solution after the subcutaneous fat was carefully removed with scissors.
The active agent/PAEC solution of known concentration was added to the upper compartment of the cell, which was exposed to the epithelial side of the skin and a normal saline solution was placed in the lower compartment.
The penetration rate was studied in a thermostated bath at 30° C. […]
The flux of the active agent is given in the terms of μg/cm^2 /8 hours. 25 Volume percent component A with respect to component A and component B volume with or without diols and/or triols was used in the composition along with 2.5 weight percent of the active agent. For purposes of comparison, in one instance the result for an adjuvant alone with a diol and/or triol is given.
1,2-propanediol was used as a diol moderator. […]
In the following Examples 6, 8, 9, 11 and 12, in vitro transdermal penetration was again analyzed followed the method of Michaels, AIChE Journal, 21, [5], pp. 985-996 (1975), according to the earlier described procedure. The sample volume was 1 ml unless otherwise indicated and flux of the active agent is given in μg/cm^2 /8 hours. Al percents are volume percents based on the total volume of the system unless otherwise indicated.
25 mg of the NSAID, Indomethacin, Diclofenac sodium or Ibuprofen in 1 ml of various systems were used. […]

in vivo = conditions: rhesus monkey, topical or ocular
Protocol: Male rhesus monkeys weighting 10-14 Kg can be used as the subject. An appropriate area of the monkey's chest is shaved 24 hours before drug application.
Drug formulations comprising the PAEC are applied to a certain area of the chest. The monkey is restrained in a chair to prevent it from touching its chest.
Blood samples are taken at appropriate intervals after the application. The heparinized blood is centrifuged, and the plasma removed and stored at -20° C. until analyzed.
This example show in vivo plasma metoclopramide.HCl levels with a topical gel formulation.
200 mg of metoclopramide.HCl was dissolved in 4 ml of 10% C12 OH in a 1:1 volume mixture of MP/1,2-propanediol. To this solution was added 160 mg of Klucel (hydroxypropylcellulose type HF; Hercules Inc.) and the same stirred thoroughly to obtain a uniform gel. 1.0 ml of the gel was applied to 49 cm^2 of the chest area of the rhesus monkey; the applied area was left open to the air during the experiment.
In Examples 7 and 10, the in vivo Rhesus monkey test earlier described was followed except for modifying as described in Example 7.
49 cm^2 of a polyester non-woven cloth (230 mg) impregnated with 1 ml of 25% C12 OH in a 2:1 volume mixture of MP/1,2-propanediol containing 200 mg of Indomethacin was applied to the upper back of a rhesus monkey; the applied area was occluded with Saran® film.
The plasma level of Indomethacine was analyzed by conventional HPLC.
The in vivo procedure of Example 7 was duplicated except for using propranolol as the active agent in place of the NSAID used, e.g., Indomethacin.

Relative Flux ([1]; Ibuprofen, 25% C12 OH in N-methyl piperidone (reference)): 1.0
Relative Flux ([1]; Ibuprofen, 25% C12 OH in a 2:1 volume mixture of N-methyl piperidone/1,2-propanediol, relative to 25% C12 OH in N-methyl piperidone): 0.48
Compound: CC(C)Cc1ccc(C(C)C(=O)O)cc1 (centres unmarked) [Ibuprofen]

Relative Flux ([1]; Indomethacin, 25% C12 OH in MP (reference)): 1.0
Relative Flux ([1]; Indomethacin, 25% C12 OH in a 2:1 volume mixture of MP/1,2-propanediol, relative to 25% C12 OH in MP): 0.73
concentration at 1 h (in vivo; in vivo, 1 hour after application, 200 mg in 1 ml 25% C12 OH in 2:1 MP/1,2-propanediol, 49 cm^2 cloth, upper back, occluded, read-out: Indomethacin plasma level): 0.619 µg/mL
concentration at 3 h (in vivo; in vivo, 3 hours after application, 200 mg in 1 ml 25% C12 OH in 2:1 MP/1,2-propanediol, 49 cm^2 cloth, upper back, occluded, read-out: Indomethacin plasma level): 0.452 µg/mL
concentration at 5 h (in vivo; in vivo, 5 hours after application, 200 mg in 1 ml 25% C12 OH in 2:1 MP/1,2-propanediol, 49 cm^2 cloth, upper back, occluded, read-out: Indomethacin plasma level): 0.388 µg/mL
concentration at 7 h (in vivo; in vivo, 7 hours after application, 200 mg in 1 ml 25% C12 OH in 2:1 MP/1,2-propanediol, 49 cm^2 cloth, upper back, occluded, read-out: Indomethacin plasma level): 0.429 µg/mL
Compound: COc1ccc2c(c1)c(CC(=O)O)c(C)n2C(=O)c1ccc(Cl)cc1 [Indomethacin]

concentration at 1 h (in vivo; in vivo): 0.075 µg/mL
concentration at 2 h (in vivo; in vivo): 0.146 µg/mL
concentration at 3 h (in vivo; in vivo): 0.178 µg/mL
concentration at 5 h (in vivo; in vivo): 0.121 µg/mL
concentration at 7 h (in vivo; in vivo): 0.093 µg/mL
Compound: CCN(CC)CCNC(=O)c1cc(Cl)c(N)cc1OC [metoclopramide.HCl]

concentration at 1 h (in vivo; plasma, 200 mg, 1 hour after application, procedure of Example 7 (25% C12 OH in 2:1 MP/1,2-propanediol, 49 cm^2, upper back, occluded), read-out: Propranolol plasma level): 0.03 µg/mL
concentration at 3 h (in vivo; plasma, 200 mg, 3 hours after application, procedure of Example 7 (25% C12 OH in 2:1 MP/1,2-propanediol, 49 cm^2, upper back, occluded), read-out: Propranolol plasma level): 0.115 µg/mL
concentration at 5 h (in vivo; plasma, 200 mg, 5 hours after application, procedure of Example 7 (25% C12 OH in 2:1 MP/1,2-propanediol, 49 cm^2, upper back, occluded), read-out: Propranolol plasma level): 0.13 µg/mL
concentration at 7 h (in vivo; plasma, 200 mg, 7 hours after application, procedure of Example 7 (25% C12 OH in 2:1 MP/1,2-propanediol, 49 cm^2, upper back, occluded), read-out: Propranolol plasma level): 0.09 µg/mL
Compound: CC(C)NCC(O)COc1cccc2ccccc12 (centres unmarked) [propranolol]
